Legend:
Haemonchus contortus = experiment: In-vivo test on Haemonchus contortus on Mongolian gerbils using peroral application; settings: po, 72 h, worm count 3 days after treatment, read-out: Hc: efficacy, % reduction of the number of worms; for inhibition in vivo at 1 mg/kg: 1 mg/kg peroral; for inhibition in vivo at 10 mg/kg: 10 mg/kg peroral; for inhibition in vivo at 3.2 mg/kg: 3.2 mg/kg peroral
Description: (§1) 1. In-Vivo Test on Trichostrongylus colubriformis and Haemonchus contortus on Mongolian Gerbils (Meriones uncuiculatus) Using Peroral Application Six to eight week old Mongolian gerbils are infected through a stomach tube with ca. 2000 third instar larvae each of T. colubriformis and H. contortus. 6 days after infection, the gerbils are treated by peroral application with the test compounds, dissolved in a mixture of 2 parts DMSO and 1 part polyethylene glycol (PEG 400), in quantities of 100, 32 and 10-0.1 mg/kg. On day 9 (3 days after treatment), when most of the H. contortus that are still present are late 4th instar larvae and most of the T. colubriformis are immature adults, the gerbils are killed in order to count the worms. The efficacy is calculated as the % reduction of the number of worms in each gerbil, compared with the geometric average of number of worms from 6 infected and untreated gerbils. The following tables B1, B2 and B3 show a comparison of a series of the compounds of tables 1, 2 and 3 with structurally most closely related ones known from literature, proving the astounding efficacy increase in this test over the state of the art (Hc: Haemonchus contortus; Tc: Trichostrongylus colubriformis): […]

[1] = tested on: Trichostrongylus colubriformis; experiment: In-vivo test on Trichostrongylus colubriformis on Mongolian gerbils using peroral application; settings: po, 72 h, worm count 3 days after treatment, read-out: Tc: efficacy, % reduction of the number of worms; for inhibition in vivo at 1 mg/kg: 1 mg/kg peroral; for inhibition in vivo at 10 mg/kg: 10 mg/kg peroral; for inhibition in vivo at 3.2 mg/kg: 3.2 mg/kg peroral
Description: as §1

Compound	inhibition in vivo at 1 mg/kg (Haemonchus contortus)	inhibition in vivo at 1 mg/kg [1]	melting point	other results
CC(C#N)(COc1ccc(C#N)cc1C(F)(F)F)NC(=O)c1ccc(SC(F)(F)F)cc1 (stereo not drawn) [No. 3.7, N-[1-cyano-1-methyl-2-(4-cyano-2-trifluoromethylphenoxy)-ethyl]-4-trifluoromethylsulfanyl-benzamide]	90%	98%	79 to 82 °C	–
CC(C#N)(COc1ccccc1C(F)(F)F)NC(=O)c1ccc(C(F)(F)F)cc1F (stereo not drawn) [No. 2.19, reference compound]	–	–	–	inhibition in vivo at 10 mg/kg (Haemonchus contortus): 25%; inhibition in vivo at 10 mg/kg [1]: 0%
CC(C#N)(COc1ccccc1C(F)(F)F)NC(=O)c1ccc(C(F)(F)F)cc1 (stereo not drawn) [No. 1.264, reference compound]	–	–	–	inhibition in vivo at 3.2 mg/kg (Haemonchus contortus): 57%; inhibition in vivo at 3.2 mg/kg [1]: 76%
CC(C#N)(COc1ccccc1C(F)(F)F)NC(=O)c1ccc(SC(F)(F)F)cc1 (stereo not drawn) [No. 2.14, reference compound]	–	–	–	inhibition in vivo at 3.2 mg/kg (Haemonchus contortus): 61%; inhibition in vivo at 3.2 mg/kg [1]: 73%
CC(C#N)(COc1cc(C#N)ccc1C(F)(F)F)NC(=O)c1ccc(C(F)(F)F)cc1 (stereo not drawn) [No. 1.6, N-[1-cyano-1-methyl-2-(5-cyano-2-trifluoromethylphenoxy)-ethyl]-4-trifluoromethyl-benzamide]	97%	87%	154 °C	–
CC(C#N)(COc1cc(C#N)ccc1C(F)(F)F)NC(=O)c1ccc(SC(F)(F)F)cc1 (stereo not drawn) [No. 3.16, N-[1-cyano-1-methyl-2-(5-cyano-2-trifluoromethylphenoxy)-ethyl]-4-trifluoromethylsulfanyl-benzamide]	100%	100%	–	–
CC(C#N)(COc1ccc(C#N)cc1C(F)(F)F)NC(=O)c1ccc(S(=O)(=O)C(F)(F)F)cc1 (stereo not drawn) [No. 3.9, N-[1-cyano-1-methyl-2-(4-cyano-2-trifluoromethylphenoxy)-ethyl]-4-trifluoromethylsulfonyl-benzamide]	77%	87%	–	–
CC(C#N)(COc1ccc(C#N)cc1C(F)(F)F)NC(=O)c1ccc(C(F)(F)F)cc1 (stereo not drawn) [No. 1.3, N-[1-cyano-1-methyl-2-(4-cyano-2-trifluoromethylphenoxy)-ethyl]-4-trifluoromethyl-benzamide]	97%	91%	184 to 186 °C	–
CC(C#N)(COc1ccc(C#N)cc1Cl)NC(=O)c1ccc(C(F)(F)F)cc1 (stereo not drawn) [No. 1.1, N-[1-cyano-1-methyl-2-(4-cyano-2-chlorophenoxy)-ethyl]-4-trifluoromethylbenzamide]	97%	87%	147 to 149 °C	–
CC(C#N)(COc1ccc(C#N)cc1C(F)(F)F)NC(=O)c1ccc(OC(F)(F)F)cc1 (stereo not drawn) [No. 2.3, N-[1-cyano-1-methyl-2-(4-cyano-2-trifluoromethylphenoxy)-ethyl]-4-trifluoromethoxy-benzamide]	–	–	80 to 82 °C	–
CC(C#N)(COc1cc(C#N)ccc1C(F)(F)F)NC(=O)c1ccc(OC(F)(F)F)cc1 (stereo not drawn) [No. 2.6, N-[1-cyano-1-methyl-2-(5-cyano-2-trifluoromethylphenoxy)-ethyl]-4-trifluoromethoxybenzamide]	95%	85%	–	–
CC(C#N)(COc1cc(C#N)ccc1C(F)(F)F)NC(=O)c1ccc([S+]([O-])C(F)(F)F)cc1 (stereo not drawn) [No. 3.17, N-[1-cyano-1-methyl-2-(5-cyano-2-trifluoromethylphenoxy)-ethyl]-4-trifluoromethylsulfinyl-benzamide]	100%	100%	–	–
CC(C#N)(COc1cc(C#N)ccc1Cl)NC(=O)c1ccc(SC(F)(F)F)cc1 (stereo not drawn) [No. 3.10, N-[1-cyano-1-methyl-2-(5-cyano-2-chlorophenoxy)-ethyl]-4-trifluoromethylsulfanylbenzamide]	100%	100%	125 to 127 °C	–
CC(C#N)(COc1ccc(C#N)cc1Cl)NC(=O)c1ccc(OC(F)(F)F)cc1 (stereo not drawn) [No. 2.1, N-[1-cyano-1-methyl-2-(4-cyano-2-chlorophenoxy)-ethyl]-4-trifluoromethoxybenzamide]	–	–	60 to 62 °C	inhibition in vivo at 3.2 mg/kg (Haemonchus contortus): 100%; inhibition in vivo at 3.2 mg/kg [1]: 100%
CC(C#N)(COc1cc(C#N)ccc1Cl)NC(=O)c1ccc(C(F)(F)F)cc1 (stereo not drawn) [No. 1.4, N-[1-cyano-1-methyl-2-(5-cyano-2-chlorophenoxy)-ethyl]-4-trifluoromethylbenzamide]	82%	–	147 to 149 °C	–
CC(C#N)(COc1cc(Cl)ccc1Cl)NC(=O)c1ccc(OC(F)(F)F)cc1 (stereo not drawn) [No. 1.124, reference compound]	–	–	–	inhibition in vivo at 10 mg/kg (Haemonchus contortus): 84%; inhibition in vivo at 10 mg/kg [1]: 99%
CC(C#N)(COc1ccc(C#N)cc1C(F)(F)F)NC(=O)c1ccc([S+]([O-])C(F)(F)F)cc1 (stereo not drawn) [No. 3.8, N-[1-cyano-1-methyl-2-(4-cyano-2-trifluoromethylphenoxy)-ethyl]-4-trifluoromethylsulfinyl-benzamide]	74%	85%	–	–
CC(C#N)(COc1ccccc1Cl)NC(=O)c1ccc(C(F)(F)F)cc1 (stereo not drawn) [No. 1.12, reference compound]	–	–	–	inhibition in vivo at 10 mg/kg (Haemonchus contortus): 82%; inhibition in vivo at 10 mg/kg [1]: 98%
CC(C#N)(COc1cc(C#N)ccc1C(F)(F)F)NC(=O)c1ccc(S(=O)(=O)C(F)(F)F)cc1 (stereo not drawn) [No. 3.18, N-[1-cyano-1-methyl-2-(5-cyano-2-trifluoromethylphenoxy)-ethyl]-4-trifluoromethylsulfonyl-benzamide]	100%	100%	–	–
CC(C#N)(COc1ccc(C#N)cc1Cl)NC(=O)c1ccc(SC(F)(F)F)cc1 (stereo not drawn) [No. 3.1, N-[1-cyano-1-methyl-2-(4-cyano-2-chlorophenoxy)-ethyl]-4-trifluoromethylsulfanylbenzamide]	69%	93%	167 to 169 °C	–
CC(C#N)(COc1ccccc1C(F)(F)F)NC(=O)c1ccc(OC(F)(F)F)cc1 (stereo not drawn) [No. 1.64, reference compound]	28%	55%	–	–
CC(C#N)(COc1ccc(Cl)cc1Cl)NC(=O)c1ccc(C(F)(F)F)cc1 (stereo not drawn) [No. 1.60, reference compound]	–	–	–	inhibition in vivo at 3.2 mg/kg (Haemonchus contortus): 29%; inhibition in vivo at 3.2 mg/kg [1]: 31%
CC(C#N)(COc1cc(C#N)ccc1Cl)NC(=O)c1ccc(OC(F)(F)F)cc1 (stereo not drawn) [No. 2.4, N-[1-cyano-1-methyl-2-(5-cyano-2-chlorophenoxy)-ethyl]-4-trifluoromethoxybenzamide]	89%	79%	132 to 134 °C	–
CC(C#N)(COc1cc(Cl)ccc1Cl)NC(=O)c1ccc(C(F)(F)F)cc1 (stereo not drawn) [No. 1.72, reference compound]	–	–	–	inhibition in vivo at 10 mg/kg (Haemonchus contortus): 66%
